Experiments:
[1] = molecular target: T1, MAP kinase-interacting serine/threonine-protein kinase 1 (Homo sapiens, UniProt Q9BUB5); experiment: Inhibition of MNK1 (unknown origin) at 100 nM incubated for 60 mins by HTRF assay
Target sequence in this assay (Q9BUB5 whole entry, looked up, the tested form may be a part): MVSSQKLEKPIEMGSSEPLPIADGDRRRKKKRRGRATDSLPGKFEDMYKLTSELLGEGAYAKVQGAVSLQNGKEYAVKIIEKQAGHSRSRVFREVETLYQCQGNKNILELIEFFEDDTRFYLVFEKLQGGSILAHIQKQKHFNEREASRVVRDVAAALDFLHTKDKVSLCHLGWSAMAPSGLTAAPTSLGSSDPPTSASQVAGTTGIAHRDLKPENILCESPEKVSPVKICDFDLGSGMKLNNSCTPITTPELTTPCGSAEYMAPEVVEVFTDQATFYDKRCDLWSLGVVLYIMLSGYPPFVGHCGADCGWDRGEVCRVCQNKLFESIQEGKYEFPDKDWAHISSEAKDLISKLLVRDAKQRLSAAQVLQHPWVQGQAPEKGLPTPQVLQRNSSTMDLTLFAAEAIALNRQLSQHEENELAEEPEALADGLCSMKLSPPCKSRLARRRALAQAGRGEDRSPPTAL

[2] = molecular target: T2, MAP kinase-interacting serine/threonine-protein kinase 2 (Homo sapiens, UniProt Q9HBH9); experiment: Inhibition of recombinant human N-terminal GST-tagged MNK2 (1 to 465 residues) expressed in baculovirus expression system using TATKSGSTTKNR as substrate preincubated for 10 mins followed by ATP addition and measured after 40 mins by luminescence based assay
Target sequence in this assay (Q9HBH9 whole entry, the tested form may be a part): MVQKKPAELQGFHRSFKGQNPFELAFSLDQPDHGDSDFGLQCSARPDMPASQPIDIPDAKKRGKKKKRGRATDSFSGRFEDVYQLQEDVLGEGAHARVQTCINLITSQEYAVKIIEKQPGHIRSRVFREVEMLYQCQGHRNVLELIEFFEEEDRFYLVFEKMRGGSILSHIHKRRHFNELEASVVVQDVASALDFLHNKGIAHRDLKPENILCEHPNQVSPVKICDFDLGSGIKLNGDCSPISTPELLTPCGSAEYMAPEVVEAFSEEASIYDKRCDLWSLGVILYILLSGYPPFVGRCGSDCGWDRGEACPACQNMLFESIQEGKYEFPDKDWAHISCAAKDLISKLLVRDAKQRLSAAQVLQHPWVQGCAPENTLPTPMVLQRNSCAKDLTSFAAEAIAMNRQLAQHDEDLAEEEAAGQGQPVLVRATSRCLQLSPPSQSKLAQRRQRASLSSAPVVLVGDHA

[3] = molecular target: T2, MAP kinase-interacting serine/threonine-protein kinase 2; experiment: Inhibition of MNK2 (unknown origin) at 100 nM incubated for 60 mins by HTRF assay
Target sequence in this assay (Q9HBH9 whole entry, looked up, the tested form may be a part): as the sequence (Q9HBH9 whole entry, the tested form may be a part) above

[4] = molecular target: T1, MAP kinase-interacting serine/threonine-protein kinase 1; experiment: Inhibition of recombinant human N-terminal DYKDDDDK-tagged MNK1(1 to 424 residues) expressed in baculovirus expression system using TATKSGSTTKNR as substrate preincubated for 10 mins followed by ATP addition and measured after 40 mins by luminescence based assay
Target sequence in this assay (Q9BUB5 whole entry, the tested form may be a part): as the sequence (Q9BUB5 whole entry, looked up, the tested form may be a part) above

[5] = Antiproliferative activity against […] cells assessed as reduction in cell viability at 20 uM incubated for 72 hrs by MTT assay relative to control; type: functional, Mus musculus
A549 = experiment: Antiproliferative activity against human A549 cells assessed as reduction in cell viability incubated at 20 uM for 72 hrs by MTT assay relative to control; type: functional
MDA-MB-435 = experiment: Antiproliferative activity against human MDA-MB-435 cells assessed as reduction in cell viability at 20 uM incubated for 72 hrs by MTT assay relative to control; type: functional
HCT-116 = experiment: Antiproliferative activity against human HCT-116 cells assessed as reduction in cell viability at 20 uM incubated for 72 hrs by MTT assay relative to control; type: functional
TMD8 = experiment: Antiproliferative activity against human TMD8 cells assessed as reduction in cell viability incubated for 72 hrs by MTT assay; type: functional, cell-based; conditions: TMD8, 72 h
MV4-11 = experiment: Antiproliferative activity against human MV4-11 cells assessed as reduction in cell viability incubated for 72 hrs by MTT assay; type: functional, cell-based; conditions: MV4-11, 72 h
K562 = experiment: Antiproliferative activity against human K562 cells assessed as reduction in cell viability incubated for 72 hrs by MTT assay; type: functional, cell-based; conditions: K562, 72 h

Row | SMILES | inhibition [1] [%] | IC50 [2] [nM] | inhibition [3] [%] | IC50 [4] [nM] | IC50 (MV4-11) [nM] | IC50 (K562) [nM] | inhibition at 20 µM [5] [%] | inhibition at 20 µM (A549) [%] | inhibition at 20 µM (MDA-MB-435) [%] | inhibition at 20 µM (HCT-116) [%] | IC50 (TMD8) [nM]
1 | Cc1cc(Nc2cccnc2)c(=O)n2c1C(=O)NC21CCCCC1 | 20.2 | > 500 | 13.3 | > 500 | – | – | – | – | – | – | –
2 | Cc1cc(Nc2cc(N3CCN(C)CC3)ncn2)c(=O)n2c1C(=O)NC21CCCCC1 | 54.4 | 42.1 | 66.8 | 51.2 | > 20000 | 17900 | 38.8 | 39 | 44.3 | 65.2 | 4810
3 | Cc1cc(Nc2cc(N3CCNCC3)ncn2)c(=O)n2c1C(=O)NC21CCCCC1 | 66.5 | 18.3 | 87.7 | 20.7 | 11000 | 8780 | 18.8 | 24.6 | 35.2 | 59.9 | 1810
4 | Cc1cc(Nc2cc(N3CCC(N)CC3)ncn2)c(=O)n2c1C(=O)NC21CCCCC1 | 62.7 | 82 | 64.3 | 125 | > 20000 | 17700 | 36.5 | 50.1 | 42 | 46.8 | 9960
5 | Cc1cc(Nc2cc(N3CCCCC3)ncn2)c(=O)n2c1C(=O)NC21CCCCC1 | 37.5 | 452 | 50.3 | 476 | – | – | – | – | – | – | –
6 | Cc1cc(Nc2ccccn2)c(=O)n2c1C(=O)NC21CCCCC1 | 19.5 | > 500 | 16.2 | > 500 | – | – | – | – | – | – | –
7 | Cc1cc(Nc2ncccn2)c(=O)n2c1C(=O)NC21CCCCC1 | 22.4 | > 500 | 18.9 | > 500 | – | – | – | – | – | – | –
8 | Cc1cc(Nc2cc(N3CCOCC3)ncn2)c(=O)n2c1C(=O)NC21CCCCC1 | 21.4 | 454 | 35.5 | > 500 | – | – | – | – | – | – | –
9 | Cc1cc(Nc2cnccn2)c(=O)n2c1C(=O)NC21CCCCC1 | 47.6 | > 500 | 36.8 | 466 | – | – | – | – | – | – | –

Continued, in another order:

Row | inhibition [1] [%] | IC50 [2] [nM] | inhibition [3] [%] | IC50 [4] [nM] | IC50 (MV4-11) [nM] | IC50 (K562) [nM] | SMILES | inhibition at 20 µM [5] [%] | inhibition at 20 µM (A549) [%] | inhibition at 20 µM (MDA-MB-435) [%] | inhibition at 20 µM (HCT-116) [%] | IC50 (TMD8) [nM]
10 | 25.3 | > 500 | 33.2 | > 500 | – | – | Cc1cc(Nc2cncc(N)n2)c(=O)n2c1C(=O)NC21CCCCC1 | – | – | – | – | –
11 | 53.2 | 389 | 55.4 | 479 | – | – | Cc1cc(Nc2cn(C)nc2N)c(=O)n2c1C(=O)NC21CCCCC1 | – | – | – | – | –
12 | 25.4 | > 500 | 14.6 | > 500 | – | – | Cc1cc(Nc2cn(C)nc2C(F)F)c(=O)n2c1C(=O)NC21CCCCC1 | – | – | – | – | –
13 | 26.8 | 398 | 45.2 | 422 | – | – | Cc1cc(Nc2cc(C)c3n(c2=O)C2(CCCCC2)NC3=O)ccn1 | – | – | – | – | –
14 | 33.2 | > 500 | 30.2 | > 500 | – | – | Cc1cc(Nc2nccc(N)n2)c(=O)n2c1C(=O)NC21CCCCC1 | – | – | – | – | –
15 | 19.8 | > 500 | 13.4 | > 500 | – | – | Cc1cccc(Nc2cc(C)c3n(c2=O)C2(CCCCC2)NC3=O)n1 | – | – | – | – | –
16 | 17.8 | > 500 | 23 | > 500 | – | – | Cc1cccnc1Nc1cc(C)c2n(c1=O)C1(CCCCC1)NC2=O | – | – | – | – | –
17 | 10.5 | > 500 | 11.9 | > 500 | – | – | Cc1cc(Nc2cn(C)nc2C#N)c(=O)n2c1C(=O)NC21CCCCC1 | – | – | – | – | –
18 | 43.4 | > 500 | 30.8 | > 500 | – | – | Cc1cc(Nc2cc(N)ccn2)c(=O)n2c1C(=O)NC21CCCCC1 | – | – | – | – | –
19 | 25.9 | > 500 | 23.9 | > 500 | – | – | Cc1cc(Nc2cccnn2)c(=O)n2c1C(=O)NC21CCCCC1 | – | – | – | – | –
